# From ChEMBL document CHEMBL4000214, “Lycopene pretreatment improves hepatotoxicity induced by acetaminophen in C57BL/6 mice” (2017)
# The source made the active and inactive calls. The calls are words filed in the database; no cut-off is given here.
# What was measured:
# Mus musculus [1] = assay: (§1) Hepatoprotective activity against APAP overdose-induced liver damage in C57BL/6 mouse assessed as decrease in liver necrotic area at 10 mg/kg, po pretreated via gavage for 14 consecutive days followed by APAP treatment 1 hr post last dose on day 14 measured 12 hrs post APAP treatment by hematoxylin and eosin staining based assay; format: functional, organism-based
# Mus musculus [2] = assay: (§2) Hepatoprotective activity against APAP overdose-induced oxidative damage in C57BL/6 mouse assessed as decrease in lipid peroxidation in liver at 10 to 100 mg/kg, po pretreated via gavage for 14 consecutive days followed by APAP treatment 1 hr post last dose on day 14 measured 12 hrs post APAP treatment by TBARS assay; format: functional, organism-based
# Mus musculus [3] = assay: (§3) Hepatoprotective activity against APAP overdose-induced liver damage in C57BL/6 mouse assessed as serum IL-1beta mRNA level at 10 mg/kg, po pretreated via gavage for 14 consecutive days followed by APAP treatment 1 hr post last dose on day 14 measured 12 hrs post APAP treatment by RT-PCR method (reference value: 1.67 +/- 0.4); format: functional
# Mus musculus [4] = assay: as §3, with “injury” for “damage”, “ALT” for “IL-1beta mRNA”, “100” for “10”, “spectrophotometric” for “RT-PCR”, “166” for “1.67”, “1.7 IU)” for “0.4)”; format: functional
# Mus musculus [5] = assay: Hepatoprotective activity against APAP overdose-induced oxidative damage in C57BL/6 mouse assessed as decrease in GSSG level in liver at 10 mg/kg, po pretreated via gavage for 14 consecutive days followed by APAP treatment 1 hr post last dose on day 14 measured 12 hrs post APAP treatment; format: functional, organism-based
# Mus musculus [6] = assay: as §2, with “increase” for “decrease”, “GSH level” for “lipid peroxidation”, “DTNB reagent based” for “TBARS”; format: functional, organism-based
# Mus musculus [7] = assay: as §1, with “100” for “10”; format: functional, organism-based
# Mus musculus [8] = assay: (§4) Hepatoprotective activity against APAP overdose-induced liver injury in C57BL/6 mouse assessed as HDL level in serum at 10 mg/kg, po pretreated via gavage for 14 consecutive days followed by APAP treatment 1 hr post last dose on day 14 measured 12 hrs post APAP treatment by spectrophotometric method (reference value: 10.8 +/- 0.6 mg/dl); format: functional
# Mus musculus [9] = assay: Hepatoprotective activity against APAP overdose-induced oxidative damage in C57BL/6 mouse assessed as decrease in GSSG level in liver at 100 mg/kg, po pretreated via gavage for 14 consecutive days followed by APAP treatment 1 hr post last dose on day 14 measured 12 hrs post APAP treatment; format: functional, organism-based
# Mus musculus [10] = assay: as §4, with “at 100” for “at 10”; format: functional
# Mus musculus [11] = assay: as §4, with “serum ALT” for “HDL”, “level” for “level in serum”, “166” for “10.8”, “1.7 IU)” for “0.6 mg/dl)”; format: functional
# Mus musculus [12] = assay: as §4, with “total cholesterol” for “HDL”, “100” for “10”, “42.2” for “10.8”, “3.5” for “0.6”; format: functional
# Mus musculus [13] = assay: as §4, with “serum AST” for “HDL”, “level” for “level in serum”, “143.8” for “10.8”, “2.5 IU)” for “0.6 mg/dl)”; format: functional
# Mus musculus [14] = assay: as §2, with “restoration of APAP-induced loss” for “decrease”, “SOD activity” for “lipid peroxidation”, “liver by measuring SOD ability to dismutase superoxide anion” for “liver”, “spectrophotometric method” for “TBARS assay”; format: functional, organism-based
# Mus musculus [15] = assay: Hepatoprotective activity against APAP overdose-induced oxidative damage in C57BL/6 mouse assessed as inhibition of APAP-induced decrease in total GSH level in liver at 10 to 100 mg/kg, po pretreated via gavage for 14 consecutive days followed by APAP treatment 1 hr post last dose on day 14 measured 12 hrs post APAP treatment by DTNB reagent based assay; format: functional, organism-based
# Mus musculus [16] = assay: as §3, with “IL-6” for “IL-1beta”, “100” for “10”, “0.32” for “1.67”, “0.2)” for “0.4)”; format: functional
# Mus musculus [17] = assay: as §3, with “100” for “10”; format: functional
# Mus musculus [18] = assay: Hepatoprotective activity against APAP overdose-induced oxidative damage in C57BL/6 mouse assessed as restoration of APAP-induced loss in catalase activity in liver by measuring decrease in hydrogen peroxide level at 10 to 100 mg/kg, po pretreated via gavage for 14 consecutive days followed by APAP treatment 1 hr post last dose on day 14 measured 12 hrs post APAP treatment by spectrophotometric method; format: functional, organism-based
# Mus musculus [19] = assay: as §4, with “atherogenic fraction” for “HDL level”, “28.8” for “10.8”, “2.6” for “0.6”; format: functional
# Mus musculus [20] = assay: as §3, with “IL-10” for “IL-1beta”, “0.45” for “1.67”, “0.2)” for “0.4)”; format: functional
# Mus musculus [21] = assay: Hepatoprotective activity against APAP overdose-induced oxidative damage in po dosed C57BL/6 mouse assessed as decrease in carbonylated protein content in liver pretreated via gavage for 14 consecutive days followed by APAP treatment 1 hr post last dose on day 14 measured 12 hrs post APAP treatment by spectrophotometric method; format: functional, organism-based
# Mus musculus [22] = assay: as §4, with “total cholesterol” for “HDL”, “42.2” for “10.8”, “3.5” for “0.6”; format: functional
# Mus musculus [23] = assay: as §4, with “serum AST” for “HDL”, “level” for “level in serum”, “100” for “10”, “143.8” for “10.8”, “2.5 IU)” for “0.6 mg/dl)”; format: functional
# Mus musculus [24] = assay: as §3, with “IL-6” for “IL-1beta”, “0.32” for “1.67”, “0.2)” for “0.4)”; format: functional
# Mus musculus [25] = assay: as §2, with “liver” for “oxidative”, “APAP-induced MMP2 activity” for “lipid peroxidation”, “coomassie brilliant blue staining based gelatin zymography” for “TBARS”; format: functional, organism-based
# Mus musculus [26] = assay: as §4, with “atherogenic fraction” for “HDL level”, “100” for “10”, “28.8” for “10.8”, “2.6” for “0.6”; format: functional
# Mus musculus [27] = assay: as §3, with “IL-10” for “IL-1beta”, “100” for “10”, “0.45” for “1.67”, “0.2)” for “0.4)”; format: functional
structure (smiles),measurement,setting,value
CC(C)=CCC/C(C)=C/C=C/C(C)=C/C=C/C(C)=C/C=C/C=C(C)/C=C/C=C(C)/C=C/C=C(\C)CCC=C(C)C [LYCOPENE],Activity,Mus musculus [1],inactive
same,Activity,Mus musculus [2],Active
same,Activity,Mus musculus [3],0.68
same,Activity,Mus musculus [4],164.1 IU
same,Activity,Mus musculus [5],inactive
same,Activity,Mus musculus [6],Active
same,Activity,Mus musculus [7],Active
same,Activity,Mus musculus [8],9 mg/dL
same,Activity,Mus musculus [9],Active
same,Activity,Mus musculus [10],17 mg/dL
same,Activity,Mus musculus [11],161.7 IU
same,Activity,Mus musculus [12],58.2 mg/dL
same,Activity,Mus musculus [13],139.6 IU
same,Activity,Mus musculus [14],inactive
same,Activity,Mus musculus [15],Active
same,Activity,Mus musculus [16],0.4
same,Activity,Mus musculus [17],0.58
same,Activity,Mus musculus [18],Active
same,Activity,Mus musculus [19],30 mg/dL
same,Activity,Mus musculus [20],0.57
same,Activity,Mus musculus [21],Dose-dependent effect
same,Activity,Mus musculus [22],41 mg/dL
same,Activity,Mus musculus [23],139.8 IU
same,Activity,Mus musculus [24],0.37
same,Activity,Mus musculus [25],Active
same,Activity,Mus musculus [26],41.1 mg/dL
same,Activity,Mus musculus [27],0.3
